In one experiment the test system is rat aorta. Put plainly: Isolated aortic ring assay: acetyl choline-induced vascular relaxation. Particulars: rat aorta sections; compound at 10^−8M. As for the experimental part: FIG. 3 illustrates the augmentation of vascular relaxation produced by increasing concentrations of acetyl choline in the absence of and presence of test compounds. C indicates control.
Initially four compounds were tested for their effect on vascular tone, using an isolated aortic ring assay. In this assay, sections of rat aorta are mounted in an organ bath, and tension is determined continuously using a strain gauge, as described by Furchgott & Zawadski (1980). The effect of test compounds on the vasorelaxant effect of the endothelial-dependent vasodilator acetyl choline (ACh) was examined. […] It will be appreciated that similar experiments may be performed using sections of human aorta, coronary artery or peripheral artery obtained at surgery.

The subject of the next experiment is HeLa cells. Put plainly: Radiolabelled L-arginine uptake into HeLa cells. The experiment is classed as cell-based. As to the method: C: Control performed in the absence of test compound. […] Panel A: Compound A4; Panel B: Compound A7; Panel C: G10; Panel D: Compound H4.
In parallel with this assay, the capacity for these compounds to alter arginine entry into cells was assessed. Initial studies were conducted in HeLa cells. Arginine entry was determined by the rate of entry of radiolabelled L-arginine into the cells, using the method of Kaye et al., (2000). Of the total library, four compounds were identified which had inhibitory activity at a Ki of 100 μM. These compounds were as follows:
In the light of the foregoing discussion, we propose that this effect may be associated with therapeutic benefit.

The test system of a further experiment is EA.hy.926. Put plainly: Arginine uptake by endothelial cell line EA.hy.926. In kind it is cell-based. The conditions noted are these: Homo sapiens, read-out: Arg uptake (% control) from FIG. 4; for activity at 0.1 µM: compound at 10^-7 M (bottom value); for activity at 0.01 µM: compound at 10^-8 M (top value). From the text:
Further studies have been performed to characterize the effects of compounds from library M0006 on arginine transport in endothelial cells. Studies performed in the endothelial cell line EA.hy.926 (Harrison-Shostak et al, 1997) have identified a number of compounds which exert a stimulatory effect on L-arginine transport. This cell line is considered to be more physiologically relevant than HeLa cells to the target conditions, and in fact was more sensitive. Table 16 summarises results for the compounds so far identified which have the highest activity in the arginine transport assay.

On to `N=C(NCc1cc(C(F)(F)F)cc(C(F)(F)F)c1)Nc1ccc(C(N)=O)cc1OCC1CCC1` [Compound A4], for which, in the experiment on rat aorta, the “augmentation of acetyl choline-induced vascular relaxation” value is given as “significant augmentation”.
Regarding `N=C(NCc1cc(C(F)(F)F)cc(C(F)(F)F)c1)Nc1ccc(C(N)=O)cc1OCC1CCCCC1` [Compound G10, 3-Cyclohexylmelhoxy-4-[N′-(3,5-trifluoromethyl-benzyl)-guanidino]-benzamide], in the experiment with HeLa cells (HeLa cells, low concentration (10^−7 and 10^−8 M)), the “effect on L-arginine transport at low concentration” value is listed as “enhance L-arginine transport at low concentration”. For the same compound, the “effect on L-arginine transport at high concentration” value in the experiment with HeLa cells (high concentration) is “inhibit such transport at high concentration”.
`N=C(NCc1ccc(Cl)c(Cl)c1)Nc1ccc(C(N)=O)cc1OCC1CCCCC1` [Compound H4, 3-Cyclohexylmethoxy-4-[N′-(3,4-dichloro-benzyl)-guanidino]-benzamide]: the “augmentation of acetyl choline-induced vascular relaxation” value in the experiment with rat aorta is “significant augmentation”.
In the case of `N=C(NCc1cc(C(F)(F)F)cc(C(F)(F)F)c1)Nc1ccc(C(N)=O)cc1OCC1CCC1` [M0006 01 A04], in the experiment with EA.hy.926, the activity at 0.1 µM stood at 108% and the activity at 0.01 µM was 103%.
In the same order, the values of `N=C(NCc1ccc(Cl)c(Cl)c1)Nc1ccc(C(N)=O)cc1OCC1CCC1` [M0006 01 A07, 3-Cyclobutylmethoxy-4-[N′-(3,4-dichloro-benzyl)-guanidino]-benzamide] are 66% and 87%.
In the same order, the values of `N=C(NCc1ccccc1F)Nc1ccc(C(N)=O)cc1OCC1CCC1` [M0006 01 A11, 3-Cyclobutylmethoxy-4-[N′-(2-fluoro-benzyl)-guanidino]-benzamide] are 128% and 159%.
`Cc1ccc(CNC(=N)Nc2ccc(C(N)=O)cc2OCC2CCC2)cc1` [M0006 01 A12, 3-Cyclobutylmethoxy-4-[N′-(4-methyl-benzyl)-guanidino]-benzamide]: in the experiment with EA.hy.926, the activity at 0.1 µM was determined as 160% and the activity at 0.01 µM was 179%.
In the same order, the values of `COc1ccccc1CNC(=N)Nc1ccc(C(N)=O)cc1OCC1CCC1` [M0006 01 B04, 3-Cyclobutylmethoxy-4-[N′-(2-methoxy-benzyl)-guanidino]-benzamide] are 122% and 130%.
In the same order, the values of `N=C(Nc1ccc(C(N)=O)cc1OCC1CCC1)NC1CCCCC1` [M0006 01 B12, 3-Cyclobutylmethoxy-4-(N′-cyclohexyl-guanidino)-benzamide] are 134% and 161%.
Regarding `CC(CNC(=N)Nc1ccc(C(N)=O)cc1OCC1CC1)c1ccccc1` (centres unmarked) [M0006 01 C12, 3-Cyclopropylmethoxy-4-[N′-(2-phenyl-propyl)-guanidino]-benzamide], in the experiment with EA.hy.926, the activity at 0.1 µM is 133% and the activity at 0.01 µM turned out to be 116%.
On to `CC(CNC(=N)Nc1ccc(C(N)=O)cc1OCC1CCCCO1)c1ccccc1` (centres unmarked) [M0006 01 F05, 4-[N′-(2-Phenyl-propyl)-guanidino)-3-(tetrahydro-pyran-2-ylmethoxy)-benzamide], for which, in the experiment with EA.hy.926, the activity at 0.1 µM is 130% and the activity at 0.01 µM is 135%.
In the same order, the values of `N=C(NCc1ccccc1)Nc1ccc(C(N)=O)cc1OCC1CCCCO1` (centres unmarked) [M0006 01 F09, 4-(N′-Benzyl-guanidino)-3-(tetrahydro-pyran-2-ylmethoxy)-benzamide] are 110% and 140%.
In the same order, the values of `N=C(NCc1ccc2c(c1)OCO2)Nc1ccc(C(N)=O)cc1OCC1CCCCO1` (centres unmarked) [M0006 01 F10, 4-(N′-Benzo[1,3]dioxol-5-ylmethyl-guanidino)-3-(tetrahydro-pyran-2-ylmethoxy)-benzamide] are 131% and 119%.
As to `CC(C)CNC(=N)Nc1ccc(C(N)=O)cc1OCC1CCCCO1` (centres unmarked) [M0006 01 F12, 4-(N′-Isobutyl-guanidino)-3-(tetrahydro-pyran-2-ylmethoxy)-benzamide], in the experiment on EA.hy.926, the activity at 0.1 µM worked out at 146% and the activity at 0.01 µM came to 103%.
In the same order, the values of `N=C(NCc1cc(C(F)(F)F)cc(C(F)(F)F)c1)Nc1ccc(C(N)=O)cc1OCC1CCCCC1` [M0006 01 G10] are 188% and 125%.
In the same order, the values of `N=C(NCc1ccc(Cl)c(Cl)c1)Nc1ccc(C(N)=O)cc1OCC1CCCCC1` [M0006 01 H04, 3-Cyclohexylmethoxy-4-[N′-(3,4-dichloro-benzyl)-guanidino]-benzamide] are 92% and 99%.
In the same order, the values of `COc1ccccc1CNC(=N)Nc1ccc(C(N)=O)cc1OCC1CCCCC1` [M0006 01 H10, 3-Cyclohexylmethoxy-4-[N′-(2-methoxy-benzyl)-guanidino]-benzamide] are 146% and 153%.
For `N=C(NCc1ccccc1)Nc1ccc(C(N)=O)cc1OCC1CCCCC1` [M0006 01 H11, 4-(N′-Benzyl-guanidino)-3-cyclohexylmethoxy-benzamide], in the experiment on EA.hy.926, the activity at 0.1 µM turned out to be 190% and the activity at 0.01 µM amounted to 131%.
For the compound `N=C(NCC1CCCCC1)Nc1ccc(C(N)=O)cc1OCC1CCCCC1` [M0006 02 A10, 3-Cyclohexylmethoxy-4-(N′-cyclohexylmethyl-guanidino)-benzamide], in the experiment with EA.hy.926, the activity at 0.1 µM amounted to 127% and the activity at 0.01 µM turned out to be 123%.
In the same order, the values of `N=C(NCNc1ccc([N+](=O)[O-])cn1)Nc1ccc(C(N)=O)cc1OCc1ccccc1` [M0006 02 D06, 3-Benzyloxy-4-{N′-[(5-nitro-pyridin-2-ylamino)-methyl]-guanidino}-benzamide] are 138% and 176%.
On to `N=C(NCc1ccccc1)Nc1ccc(C(N)=O)cc1OCc1ccccc1` [M0006 02 E06, 4-(N′-Benzyl-guanidino)-3-benzyloxy-benzamide], for which, in the experiment on EA.hy.926, the activity at 0.1 µM is 160% and the activity at 0.01 µM was 167%.
In the same order, the values of `N=C(NCc1ccco1)Nc1ccc(C(N)=O)cc1OCc1ccccc1` [M0006 02 F06, 3-Benzyloxy-4-(N′-furan-2-ylmethyl-guanidino)-benzamide] are 126% and 158%.
Consider `Cc1cccc(COc2cc(C(N)=O)ccc2NC(=N)NCc2ccco2)c1` [M0006 02 H08, 4-(N′-Furan-2-ylmethyl-guanidino)-3-(3-methyl-benzyloxy)-benzamide], for which, in the experiment with EA.hy.926, the activity at 0.1 µM was 182% and the activity at 0.01 µM came out at 108%.

(Values after patent US7956219B2, “Amino acid analogues” (Baker IDI Heart and Diabetes, priority 2002, dated 2011).)
